Results taken from BigSolDB 2.1.

O=C1OC[C@H]2[C@@H]1N(Cc1ccccc1)C(=O)N2Cc1ccccc1
Details | solubility (mole fraction)
in DMF, 293.15 K | 0.15
in DMF, 298.15 K | 0.163
in DMF, 303.15 K | 0.179
in DMF, 308.15 K | 0.196
in DMF, 312.65 K | 0.211
in DMF, 316.05 K | 0.224
in DMF, 320.35 K | 0.242
in THF, 293.35 K | 0.074
in THF, 298.15 K | 0.0845
in THF, 303.15 K | 0.0971
in THF, 308.15 K | 0.111
in THF, 313.05 K | 0.126
in THF, 318.15 K | 0.142
in THF, 323.25 K | 0.165
in dichloromethane, 293.25 K | 0.121
in dichloromethane, 296.45 K | 0.127
in dichloromethane, 299.35 K | 0.132
in dichloromethane, 302.25 K | 0.138
in dichloromethane, 305.45 K | 0.144
in dichloromethane, 308.15 K | 0.149
in dichloromethane, 311.35 K | 0.155
in ethyl acetate, 293.65 K | 0.0221
in ethyl acetate, 298.35 K | 0.0271
in ethyl acetate, 304.15 K | 0.0332
in ethyl acetate, 308.25 K | 0.0391
in ethyl acetate, 314.15 K | 0.0487
in ethyl acetate, 318.15 K | 0.0576
in ethyl acetate, 323.75 K | 0.0716
in methanol, 287.15 K | 0.0034
in methanol, 293.15 K | 0.0049
in methanol, 298.15 K | 0.0067
in methanol, 303.25 K | 0.0088
in methanol, 308.05 K | 0.0119
in methanol, 313.45 K | 0.016
in methanol, 318.15 K | 0.0211
in toluene, 291.15 K | 0.0073
in toluene, 298.15 K | 0.0101
in toluene, 303.05 K | 0.0125
in toluene, 308.65 K | 0.0157
in toluene, 313.25 K | 0.0197
in toluene, 317.95 K | 0.0242
in toluene, 323.75 K | 0.0316
